For 14 molecules, IC50 and inhibition results are on record in patent US20240083861A1, “HSD17B13 INHIBITORS AND USES THEREOF” (FL2022-001, Inc., priority 2020, published 2024).

One assay deals with T1, Recombinant human HSD17B13 enzyme (Homo sapiens, UniProt Q7Z5P4).
T1 sequence (Q7Z5P4 20-300): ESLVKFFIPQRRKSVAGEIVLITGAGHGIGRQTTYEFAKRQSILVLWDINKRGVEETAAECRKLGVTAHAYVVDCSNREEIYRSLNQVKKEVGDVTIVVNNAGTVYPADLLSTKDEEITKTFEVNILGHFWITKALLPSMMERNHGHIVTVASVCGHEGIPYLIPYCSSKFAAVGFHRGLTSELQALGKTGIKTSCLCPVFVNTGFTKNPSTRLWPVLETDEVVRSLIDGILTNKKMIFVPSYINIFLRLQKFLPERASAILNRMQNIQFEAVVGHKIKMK
As to the kind of experiment: HSD17b13 NAD(P)H-Glo biochemical assay. Conditions: 50 uM estradiol, 1 mM NAD+, NAD(P)H-Glo luminescence; read-out: HSD17β13 IC50. The protocol:
Example B-1: HSD17b13 NAD(P)H-Glo Biochemical Assay
Recombinant human HSD17B13 enzyme. Substrate: estradiol (Sigma β-Estradiol E8875), 100 mM in DMSO. Cofactor: NAD+ Grade I free acid (Sigma 10127965001), 20 mM in H2O. Assay buffer final concentration: 20 mM Tris pH7.4 with 0.002% Tween-20 and 0.02% BSA. Assay performed in 384 well solid bottom plate (Corning 3570). Enzymatic activity detected by NAD(P)H-Glo™ Detection System (Promega G9062).
Inhibitor compounds were serially diluted in DMSO and then further diluted in assay buffer to a 10× concentration consisting of 1% DMSO.
HSD17b13 enzyme was diluted in 1× assay buffer to the desired enzyme concentration based on the specific activity of the enzyme lot. 20 uL of diluted enzyme was added to each well along with 2.5 uL of 10× inhibitor solution. Assay plate was incubated at RT for 20 minutes, and then 2.5 uL of a 10× substrate/cofactor mix was added to each well for a final concentration of 50 uM estradiol and 1 mM NAD+. Assay plate was incubated at 37° C. for 3 hours. NAD(P)H-Glo™ Detection System reagents were prepared according to manufacturer's specifications, and 25 uL was added to each well. After incubating for 1 hour at RT, luminescence was measured.
Consider `N#CC1(NC(=O)c2ccc3oc(-c4cc(C(F)(F)F)c(F)c(O)c4F)nc3c2)CCC1` [Compound 1.25, N-(1-Cyanocyclobutyl)-2-(2,4-difluoro-3-hydroxy-5-(trifluoromethyl)phenyl)benzo[d]oxa-zole-5-carboxamide], for which the IC50 (commonly the concentration that gives 50% inhibition) is under 100 nM.

Regarding `COCC1(NC(=O)c2ccc3oc(-c4cc(C(F)(F)F)c(F)c(O)c4F)nc3c2)CCC1` [Compound 1.26, 2-(2,4-Difluoro-3-hydroxy-5-(trifluoromethyl)phenyl)-N-(1-(methoxymethyl)cyclobutyl)benzo[d] oxazole-5-carboxamide], the half-inhibitory concentration (IC50) was under 100 nM.

In the case of `O=C(NC1(CCO)CCC1)c1ccc2oc(-c3cc(C(F)(F)F)c(F)c(O)c3F)nc2c1` [Compound 1.27, 2-(2,4-Difluoro-3-hydroxy-5-(trifluoromethyl)phenyl)-N-(1-(2-hydroxyethyl)cyclobutyl)benzo[d]oxa-zole-5-carboxamide], the IC50 fell in the range of 100 to 1000 nM.

Take `O=C(NC1(CO)CCC1)c1ccc2oc(-c3cc(C(F)(F)F)c(F)c(O)c3F)nc2c1` [Compound 1.28, 2-(2,4-Difluoro-3-hydroxy-5-(trifluoromethyl)phenyl)-N-(1-(hydroxymethyl)cyclobutyl)benzo[d] oxazole-5-carboxamide]: the 50% inhibitory concentration (IC50) was in the range of 100 to 1000 nM.

Regarding `N#CCC1(NC(=O)c2ccc3oc(-c4cc(C(F)(F)F)c(F)c(O)c4F)nc3c2)CCC1` [Compound 1.29, N-(1-(Cyanomethyl)cyclobutyl)-2-(2,4-difluoro-3-hydroxy-5-(trifluoromethyl)phenyl)benzo[d]oxa-zole-5-carboxamide], the IC50 was under 100 nM.

Turning to `O=C(NCC1(O)CCC1)c1ccc2oc(-c3cc(C(F)(F)F)c(F)c(O)c3F)nc2c1` [Compound 1.30, 2-(2,4-Difluoro-3-hydroxy-5-(trifluoromethyl)phenyl)-N-((1-hydroxycyclobutyl)methyl)benzo[d] oxazole-5-carboxamide], the IC50 was 100 to 1000 nM.

Turning to `O=C(NC1CCC1)c1ccc2oc(-c3cc(O)cc(C(F)(F)F)c3)nc2c1` [Compound 2, N-Cyclobutyl-2-(3-hydroxy-5-(trifluoromethyl)phenyl)benzo[d]oxazole-5-carboxamide], the IC50 fell in the range of 100 to 1000 nM.

Take `O=C(NC12CC(C1)C2)c1ccc2oc(-c3cc(O)cc(C(F)(F)F)c3)nc2c1` [Compound 2.01, N-(Bicyclo[1.1.1]pentan-1-yl)-2-(3-hydroxy-5-(trifluoromethyl)phenyl)benzo[d]oxa-zole-5-carboxamide]: the IC50 is under 100 nM.

With `Oc1cc(-c2nc3cc(-c4ccc(O)c(Cl)c4)ccc3o2)ccc1F` [Compound 3, 2-Chloro-4-(2-(4-fluoro-3-hydroxyphenyl)benzo[d]oxazol-5-yl)phenol], the IC50 was in the range of 100 to 1000 nM.

Take `Oc1cc(-c2nc3ccc(-c4ccc(O)c(Cl)c4)cc3o2)ccc1F` [Compound 3.01, 2-Chloro-4-(2-(4-fluoro-3-hydroxyphenyl)benzo[d]oxazol-6-yl)phenol]: the half-maximal inhibitory concentration (IC50) lay in the range of 100 to 1000 nM.

In the case of `Oc1ccc(-c2ccc3oc(-c4ccc(F)c(O)c4)nc3c2)cc1` [Compound 3.02, 2-Fluoro-5-(5-(4-hydroxyphenyl)benzo[d]oxazol-2-yl)phenol], the half-inhibitory concentration (IC50) was in the range of 100 to 1000 nM.

For the molecule `Oc1cccc(-c2ccc3oc(-c4ccc(F)c(O)c4)nc3c2)c1` [Compound 3.03, 2-Fluoro-5-(5-(3-hydroxyphenyl)benzo[d]oxazol-2-yl)phenol], the IC50 is 1000 to 30000 nM.

The same assay, now with this note: at 10 uM compound; read-out: HSD17β13 % inhibition at 10 uM.
Turning to `O=C(NC12CC(C1)C2)c1ccc2oc(-c3cc(C(F)(F)F)cc(O)n3)nc2c1` [Compound 1.31, N-(Bicyclo[1.1.1]pentan-1-yl)-2-(6-hydroxy-4-(trifluoromethyl)pyridin-2-yl)benzo[d]oxazole-5-carboxamide], the inhibition – broadly, the relative decrease from the control value, in per cent – at 10 µM was 50%.

The assay is the same for the next values; noted with them: at 30 uM compound; read-out: HSD17β13 % inhibition at 30 uM.
As for `Cc1cc(-c2nc3cc(C(=O)NC4CCC4)ccc3o2)cc(O)c1F` [Compound 2.02, N-Cyclobutyl-2-(4-fluoro-3-hydroxy-5-methylphenyl)benzo[d]oxazole-5-carboxamide], the inhibition at 30 µM is 20%.
